Structure (SMILES) | melting point [°C]
CCOC(=O)c1cnn(C)c1-c1ccccc1 | 59 to 61
Nc1cc(C(F)(F)F)ccc1Oc1ccc(Br)cc1 | 19 to 21
COc1ccc(CCNC(=O)C(C)Cl)cc1OC (configuration not stated) | 76 to 78
CCc1nnc(S)n1N | 143 to 145
O=C(O)C1CC1c1ccccc1OC(F)(F)F (configuration not stated) | 94 to 96
Cc1cccn2c(=O)c(C(=O)O)cnc12 | 205 to 207
Nc1ccc2oc(=O)[nH]c2c1 | 204 to 206
O=C(Cc1ccc(Br)cc1)C(F)(F)F | 38 to 40
Nc1ccn(Cc2cccnc2)n1 | 88 to 90
CCNS(=O)(=O)c1ccc(C)c(C(=O)O)c1 | 181 to 183
O=C(O)CCOc1cccc([N+](=O)[O-])c1 | 111 to 113
CC(NS(=O)(=O)Cc1ccccc1)C(=O)O (configuration not stated) | 119 to 121
CCCC(NC(C)=O)C(=O)O (configuration not stated) | 114 to 116
NS(=O)(=O)Cc1ccccc1Cl | 104 to 106
CN(C)c1ncnc2nc[nH]c12 | 256 to 258
O=C(O)C1(c2ccc(F)cc2)CC1 | 126 to 128
O=S(=O)(c1cccc(CCl)c1)N1CCOCC1 | 92 to 94
N#CCC(=O)NC1CC1 | 87 to 90
Cc1ccc(Cn2nc(C)c(C(=O)O)c2C)cc1 | 134 to 136
CN(C)S(=O)(=O)c1ccc(F)c(N)c1 | 104 to 106
CN1CCCCC/C1=N\S(=O)(=O)c1cccc(N)c1 | 172 to 174
CC(C)(C)OC(=O)NC(C(N)=NO)C1CC1 (configuration not stated) | 147 to 149
O=C(O)CN1C(=O)C2CCCCC2C1=O (configuration not stated) | 88 to 90
CCc1cc2c(=O)[nH]c(N3CCCC3)nc2s1 | 253 to 255
CC(N)c1nc(-c2ccccc2)c[nH]1 (configuration not stated) | 129 to 131
NC(=O)Cc1nc2ccccc2s1 | 167 to 169
O=C(O)c1cc2c(s1)-c1ccccc1CC2 | 212 to 214
COc1ccc2nc(C)cc(C(=O)O)c2c1 | 279 to 281
O=C(c1cccnc1O)N1CCCNCC1 | 157 to 159

Now from value to compound:

melting point [°C] | Structure (SMILES)
192 to 194 | Cc1ccc(-n2c(S)nc3ccccc32)c(C)c1
47 to 49 | O=S(=O)(c1ccccc1O)C(F)(F)F
139 to 141 | Nc1ccc(C(=O)N2CCCC2)c(F)c1
124 to 126 | O=c1[nH]c(CCl)nc2scc(-c3ccc(Cl)cc3)c12
204 to 206 | CCN(CC)S(=O)(=O)c1ccc(N2CCC(C(=O)O)CC2)c([N+](=O)[O-])c1
98 to 100 | N#Cc1cccc(NC(=O)CCCl)c1
170 to 172 | Nc1ccc2c(c1)CCC(=O)N2
152 to 154 | NC(=NO)c1cccnc1Oc1ccccc1
139 to 141 | O=Cc1ccc(OCC(=O)Nc2ccc(Cl)cc2)cc1
59 to 61 | CCCOc1ccc(CC(=O)O)cc1OCCC
150 to 152 | O=C(O)c1c[nH]cc1C1CC1
124 to 126 | N#CCNC(=O)CN1CCC(=O)CC1
224 to 226 | NS(=O)(=O)c1nnc[nH]1
158 to 160 | COC(=O)c1sc(N)nc1C(C)(C)C
156 to 158 | O=C(O)c1cc(OCC(F)(F)F)ccc1[N+](=O)[O-]
86 to 88 | CC(C)Oc1cc(Br)ccc1C(=O)O
139 to 141 | O=C(O)c1cc(S(=O)(=O)Cl)c(Br)o1
130 to 135 | O=C(O)C1CC(=O)N(c2ccccc2F)C1 (configuration not stated)
52 to 54 | CN(CC12CC3CC(CC(C3)C1)C2)C(=O)CCl
97 to 99 | Cc1cc(S(N)(=O)=O)c(F)cc1F
135 to 137 | O=C1OCCN1c1cccc([N+](=O)[O-])c1
259 to 261 | CC(C)(C)OC(=O)c1cc(C(=O)O)nn1-c1ccccc1
62 to 64 | CN1CCC(C)(O)CC1
154 to 156 | CC(=O)Nc1cccc(N=C=S)c1
239 to 241 | Cc1nc(-c2c(C)c(C)nn(C)c2=O)sc1C(=O)O
173 to 176 | Sc1ccc2ccccc2n1
101 to 103 | CN(CC(=O)O)C1CC1
121 to 123 | O=C(O)C1CC(=O)N(c2ccc(F)cc2)C1 (configuration not stated)
